Broadly, the Ki is a dissociation constant, usually derived from enzyme kinetics or from competition with a known ligand. Low readings indicate tighter binding, high ones weaker binding. Broadly, the half-life is how long it takes for the measured level to halve. Lower therefore signals fast loss.

Where two headings read alike, the source gives them in different places.

Series [1] has as its target T1, Porcine Dipeptidyl Peptidase IV (Sus scrofa, UniProt P22411).
T1 construct: left at 37° C. for 18 hours to facilitate cleavage of DPP-4 from cell membranes; from tissue; host or cells: pig kidney cortex
Put plainly: Assay of Porcine Dipeptidyl Peptidase IV, steady-state inhibition constants (Ki). To be noted: DPP-IV. Type of series: biochemical.
Procedure: DPP-4 inhibitor activity of the compounds of the invention may be determined by use of an in vitro assay system which measures the potentiation of inhibition of DPP-4.
Porcine enzyme was purified as previously described in reference (2) below, with several modifications. Kidneys from 15-20 animals were obtained, and the cortex was dissected away and frozen at −80° C. Frozen tissue (2000-2500 g) was homogenized in 12 L of 0.25 M sucrose in a Waring blender. The homogenate then was left at 37° C. for 18 hours to facilitate cleavage of DPP-4 from cell membranes. After the cleavage step, the homogenate was clarified by centrifugation at 7000×g for 20 min at 4° C., and the supernatant was collected. […]
After dialysis against 20 mM Na2HPO4, pH 7.4, the preparation was clarified by centrifugation at 10,000×g. […] Purity of column fractions was analyzed by reducing SDS-PAGE, and the purest fractions were pooled and concentrated. […]
Enzyme was assayed under steady-state conditions as previously described in reference (2) below with gly-pro-p-nitroanilide as substrate, with the following modifications. […] A standard curve for p-nitroaniline absorbance was obtained at the beginning of each experiment, and enzyme catalyzed p-nitroaniline production was quantitated from the standard curve. […]

The target in series [2] is T2, plasma DPP-IV (Rattus norvegicus, UniProt P14740).
T2 construct: from tissue; host or cells: plasma of male Zucker fa/fa rats (Harlan)
Put plainly: Rat ex vivo plasma DPP-IV inhibition assay. Type of series: in vivo, Zucker fa/fa rat. To be noted: oral; for inhibition at 3 µmol/kg: rat, 3 μmol/kg.

The subject of series [3] is Zucker^fa/fa rat. Put plainly: Oral glucose tolerance test (OGTT) in Zucker fa/fa rats. Type of series: in vivo. Conditions: for glucose control after oral glucose challenge (in words): rodent model of impaired glucose homeostasis. An excerpt:
In vivo evaluation of DPP-IV inhibitors has supported the connection between DPP-IV inhibition, increases in plasma insulin levels, and an improvement in glucose tolerance.^1 Several compounds in the present series are potent inhibitors of DPP-IV in vitro. As such, these inhibitors were selected to determine the effects of DPP-IV inhibition ex vivo and on glucose tolerance in Zucker^fa/fa rat. The Zucker^fa/fa rat is a frequently used model in type II diabetes and obesity research. […] Plasma glucose levels were then monitored over a 2 h period. Columns 3 and 4 show the ex vivo plasma DPP-IV inhibition activity. […] In contrast, the adamantyl inhibitors show good inhibitory activity in the ex vivo assay, even at extended time points.
Male Zucker^fa/fa rats (Harlan) weighing between 400 and 450 g were housed in a room that was maintained on a 12 h light /dark cycle and were allowed free access to normal rodent chow and tap water. The day before the experiment, the rats were weighed and divided into control and treated groups of six. Rats were fasted 17 h prior to the start of the study. […] Two blood samples were collected at −30 and 0 min by tail bleed. Glucose (2 g/kg) was administered orally at 0 min. Additional blood samples were collected at 15, 30, 60, 90 and 120 min. Blood samples were collected into EDTA containing tubes from Starstedt. Plasma glucose was determined by Cobas Mira (Roche Diagnostics) by the glucose oxidation method.

A short description of series [4]: Solution stability of 2-cyano-pyrrolidines. Type of series: physicochemical. The procedure: In experiments at pH=7.2 and 39° C., the greater degree of β-branching the greater degree of stability associated with the compound. […] These are depected in the table below.

T2 sequence (P14740 37-767 limits assumed): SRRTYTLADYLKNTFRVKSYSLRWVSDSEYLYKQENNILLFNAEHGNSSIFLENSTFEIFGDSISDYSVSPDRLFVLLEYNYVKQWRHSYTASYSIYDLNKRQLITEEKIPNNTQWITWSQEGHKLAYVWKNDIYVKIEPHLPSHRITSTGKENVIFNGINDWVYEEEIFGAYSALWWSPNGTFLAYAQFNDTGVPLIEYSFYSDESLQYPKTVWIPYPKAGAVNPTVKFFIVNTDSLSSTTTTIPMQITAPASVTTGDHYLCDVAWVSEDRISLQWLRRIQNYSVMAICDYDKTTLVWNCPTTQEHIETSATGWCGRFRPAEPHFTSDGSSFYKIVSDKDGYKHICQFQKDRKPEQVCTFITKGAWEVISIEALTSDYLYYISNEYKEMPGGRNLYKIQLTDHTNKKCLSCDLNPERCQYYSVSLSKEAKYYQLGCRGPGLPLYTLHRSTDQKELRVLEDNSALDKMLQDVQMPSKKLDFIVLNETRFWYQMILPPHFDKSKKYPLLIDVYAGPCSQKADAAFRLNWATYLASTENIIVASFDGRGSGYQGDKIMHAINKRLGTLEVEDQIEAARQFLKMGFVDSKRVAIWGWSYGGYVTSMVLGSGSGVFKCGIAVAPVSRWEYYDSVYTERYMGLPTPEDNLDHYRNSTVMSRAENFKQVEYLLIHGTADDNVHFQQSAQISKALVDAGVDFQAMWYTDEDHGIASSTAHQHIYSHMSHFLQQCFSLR
T1 sequence (P22411 38-766 limits assumed): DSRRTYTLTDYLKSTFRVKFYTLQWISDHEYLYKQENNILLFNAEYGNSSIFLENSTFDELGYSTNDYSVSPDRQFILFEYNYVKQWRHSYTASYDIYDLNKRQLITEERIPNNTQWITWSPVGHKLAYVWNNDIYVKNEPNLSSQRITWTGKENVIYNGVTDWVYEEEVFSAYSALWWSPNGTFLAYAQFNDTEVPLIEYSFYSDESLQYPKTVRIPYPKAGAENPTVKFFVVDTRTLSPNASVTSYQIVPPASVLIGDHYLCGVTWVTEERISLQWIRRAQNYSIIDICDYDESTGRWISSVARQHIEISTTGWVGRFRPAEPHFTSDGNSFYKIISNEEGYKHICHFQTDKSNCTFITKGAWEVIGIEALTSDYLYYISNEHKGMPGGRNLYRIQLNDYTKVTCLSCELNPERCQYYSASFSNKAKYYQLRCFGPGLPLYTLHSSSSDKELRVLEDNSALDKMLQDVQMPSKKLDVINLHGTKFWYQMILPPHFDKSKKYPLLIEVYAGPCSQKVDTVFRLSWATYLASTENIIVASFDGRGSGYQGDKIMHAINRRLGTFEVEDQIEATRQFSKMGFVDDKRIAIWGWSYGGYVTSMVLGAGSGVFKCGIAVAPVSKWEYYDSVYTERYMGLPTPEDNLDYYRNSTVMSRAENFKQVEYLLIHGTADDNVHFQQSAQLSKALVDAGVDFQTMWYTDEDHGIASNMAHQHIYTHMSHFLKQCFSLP

For `CC12CC3(C)CC(O)(C1)CC([C@H](N)C(=O)N1CCCC1)(C2)C3` [Example 5, (3-hydroxy-5,7-dimethyladamant-1-yl)-glycine pyrrolidine amide], the Ki in series [1] worked out at 133 nM. For the same compound, the inhibition at 3 µmol/kg in series [2] (0.5 h post dose, read-out: % Inhibition in Rat Ex Vivo assay 3 μmol/kg 0.5 h post dose) came to 70%; in series [2] (4 h post dose, read-out: % Inhibition in Rat Ex Vivo assay 3 μmol/kg 4 h post dose) it was 66%. Moreover, the “Glucose Lowering at 4 h; % AUC's, compared to control” value in series [3] (oral, 3 μmol/kg, oral glucose 2 g/kg) is −39%.

Regarding `N#CC1CC2CC2N1C(=O)[C@@H](N)C12CC3CC(O)(CC(O)(C3)C1)C2.O=C(O)C(F)(F)F` (stereo in doubt) [Example 8, (S)-3,5-Dihydroxyadamantylglycine-L-cis-4,5-methanoprolinenitrile TFA salt], the inhibition constant Ki in series [1] is 17 nM. Also, the “% Inhibition in Rat Ex Vivo assay 3 μmol/kg 0.5 h post dose” value in series [2] (0.5 h post dose) is listed as 80%. For the same compound, in series [2] (4 h post dose), the “% Inhibition in Rat Ex Vivo assay 3 μmol/kg 4 h post dose” value was determined as 67%.

In the case of `N#C[C@@H]1CCCC1C(=O)C(N)C12CC3CC(CC(O)(C3)C1)C2` (stereo partly shown) [Example 9], the “glucose control after oral glucose challenge (in words)” value in series [3] was “good glucose control”.

As for `CC[C@H](C)[C@H](N)C(=O)N1CCC[C@H]1C#N` [Ref. Std 1, iso-Leucine-cyanopyrrolide], the entries for the “Glucose Lowering at 4 h; % AUC's, compared to control” value in series [3] (dosed at 16 μm/kg) and in series [3] (dosed at 200 μm/kg) were −11% and −19%, respectively. The “glucose control after oral glucose challenge (in words)” value in series [3] is “only a slight change in glucose control”. Moreover, the half-life in series [4] (pH 7.2) was 5 h.

For tert-Leucine-cyanopyrrolide, the “times more stable than Ref. Std. 1” value in series [4] (pH=7.2, 39° C., ratio of t1/2) was approximately 6.

For the origin of these results see patent US6995183B2, “Adamantylglycine-based inhibitors of dipeptidyl peptidase IV and methods” (Bristol Myers Squibb Company, priority 2003, dated 2006).
